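Protocol summary: plate cells (96-well), add compound at 5 concentrations, incubate 48 h, interpolate endpoints linearly. Abbreviation: GI50, concentration required for 50% inhibition of growth.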 Calls of active or inactive are those of the source. Cut-off read from the data, not from the text of the source: active = GI50 up to about 1.1 µM and inactive = higher.
Assays:
Experiment in all cases: inhibition of tumour cell growth, NCI panel, 48 h
NCI-H522 = tested on: NCI-H522
SK-MEL-28 = tested on: SK-MEL-28
SN12C = tested on: SN12C
HOP-92 = tested on: HOP-92
HCT-116 = tested on: HCT-116
OVCAR-5 = tested on: OVCAR-5
RPMI-8226 = tested on: RPMI-8226
786-0 = tested on: 786-0
OVCAR-8 = tested on: OVCAR-8
SNB-75 = tested on: SNB-75
HCT-15 = tested on: HCT-15
PC-3 = tested on: PC-3
MDA-N = tested on: MDA-N
T47D = tested on: T47D
HL-60 = tested on: HL-60
K562 = tested on: K562
MCF7 = tested on: MCF7
UACC-257 = tested on: UACC-257
M14 = tested on: M14
SF-268 = tested on: SF-268

Structure (SMILES) | GI50 (NCI-H522) | GI50 (SK-MEL-28) | GI50 (SN12C) | GI50 (HOP-92) | GI50 (HCT-116) | GI50 (OVCAR-5) | GI50 (RPMI-8226) | GI50 (786-0) | GI50 (OVCAR-8) | GI50 (SNB-75) | GI50 (HCT-15) [µM] | GI50 (PC-3) | GI50 (MDA-N) | GI50 (T47D) | GI50 (HL-60) | GI50 (K562) | GI50 (MCF7) | GI50 (UACC-257) | GI50 (M14) | GI50 (SF-268)
C/C(=N\Nc1nc2ccccc2[nH]1)c1cnccn1 | 0.169 µM (active) | 0.506 µM (active) | 1.25 µM (inactive) | 0.385 µM (active) | 0.379 µM (active) | 6.84 µM (inactive) | 0.533 µM (active) | 0.263 µM (active) | 0.8 µM (active) | 3.61 µM (inactive) | 0.313 | 3.92 µM (inactive) | 1.9 µM (inactive) | 0.437 µM (active) | 0.0589 µM (active) | 1.23 µM (inactive) | 0.542 µM (active) | 2.94 µM (inactive) | 0.614 µM (active) | 0.53 µM (active)
CCOC(=O)C(NC(=O)c1cccc(Cl)c1)(N1CCN(c2cc3c(cc2F)c(=O)c(C(=O)O)cn3CC)CC1)C(F)(F)F (stereo not given) | 4.17 µM (inactive) | 17 µM (inactive) | 24.4 µM (inactive) | 13.8 µM (inactive) | 14 µM (inactive) | 17.4 µM (inactive) | 10.9 µM (inactive) | 14.7 µM (inactive) | 16.6 µM (inactive) | 21.4 µM (inactive) | 17.6 | 13.4 µM (inactive) | 14.9 µM (inactive) | 19.4 µM (inactive) | 4.47 µM (inactive) | 5.73 µM (inactive) | 13.8 µM (inactive) | 27.4 µM (inactive) | 16.8 µM (inactive) | 14.1 µM (inactive)
COC(=O)c1ccc(CCc2cc(O)c(Br)cc2O)cc1 | 3.16 µM (inactive) | 17.5 µM (inactive) | 15 µM (inactive) | 12.9 µM (inactive) | 5.38 µM (inactive) | 18.5 µM (inactive) | 3.35 µM (inactive) | 14.4 µM (inactive) | 16 µM (inactive) | 26.8 µM (inactive) | 13.4 | 8.02 µM (inactive) | 15.7 µM (inactive) | 18.6 µM (inactive) | 1.86 µM (inactive) | 1.74 µM (inactive) | 13.5 µM (inactive) | 15.5 µM (inactive) | 15.6 µM (inactive) | 13.5 µM (inactive)
O=C(Nc1ccc(Cl)cc1)c1cc(S(=O)(=O)N2CCNNC2=O)c(S)cc1Cl | 24.7 µM (inactive) | > 100 µM (inactive) | > 100 µM (inactive) | 28.8 µM (inactive) | > 100 µM (inactive) | > 100 µM (inactive) | 55.1 µM (inactive) | > 100 µM (inactive) | > 100 µM (inactive) | > 100 µM (inactive) | > 100 | > 100 µM (inactive) | > 100 µM (inactive) | 35.6 µM (inactive) | > 100 µM (inactive) | > 100 µM (inactive) | > 100 µM (inactive) | > 100 µM (inactive) | > 100 µM (inactive) | > 100 µM (inactive)
OCCNC1c2cc(Cl)ccc2-c2c(Cl)cc(Cl)cc21 (stereo not given) | 27.8 µM (inactive) | 92.3 µM (inactive) | 25.5 µM (inactive) | 20.3 µM (inactive) | 26.5 µM (inactive) | 42.2 µM (inactive) | 33.1 µM (inactive) | 27.3 µM (inactive) | 28.6 µM (inactive) | 37.9 µM (inactive) | 33.7 | 23.3 µM (inactive) | 26.9 µM (inactive) | 36.1 µM (inactive) | 25.6 µM (inactive) | 33 µM (inactive) | 17.2 µM (inactive) | 31.3 µM (inactive) | 38.1 µM (inactive) | 38.5 µM (inactive)
COC(=O)c1c(CC(Cc2ccc3c(c2)CCCC3)C(=O)OC)ccc2c1CCCC2 (stereo not given) | > 100 µM (inactive) | > 100 µM (inactive) | > 100 µM (inactive) | 23 µM (inactive) | 72.8 µM (inactive) | > 100 µM (inactive) | 24.9 µM (inactive) | > 100 µM (inactive) | > 100 µM (inactive) | > 10 µM (inactive) | 46.2 | 38.7 µM (inactive) | 77.1 µM (inactive) | 35.8 µM (inactive) | 16.6 µM (inactive) | 32.9 µM (inactive) | 20.6 µM (inactive) | 24 µM (inactive) | > 100 µM (inactive) | 55.3 µM (inactive)
c1cc2nnc1SCCSCCCSCCS2 | > 100 µM (inactive) | 29.2 µM (inactive) | > 100 µM (inactive) | 46.5 µM (inactive) | > 100 µM (inactive) | > 100 µM (inactive) | > 100 µM (inactive) | 67 µM (inactive) | > 100 µM (inactive) | 5.83 µM (inactive) | > 100 | > 100 µM (inactive) | > 100 µM (inactive) | > 100 µM (inactive) | > 100 µM (inactive) | > 100 µM (inactive) | > 100 µM (inactive) | > 100 µM (inactive) | > 100 µM (inactive) | 2.88 µM (inactive)

Reference: ChEMBL document CHEMBL1201862, “PubChem BioAssay data set” (2004)
